From publication PMC5259778, “Candidate pheromone receptors of codling moth Cydia pomonella respond to pheromones and kairomones” (Scientific Reports, 2017)

How the values were obtained:
CpomOrco = CpomOrco (Cydia pomonella, UniProt H9A5M2); experiment: Calcium imaging of HEK293T cells expressing homomeric CpomOrco; assay type: cell-based; conditions: peak amplitudes normalized to response at 1000 μM agonist, read-out: [A]1/2 half-effective concentration of agonist, calcium response
Protocol: HEK293T cells were grown in HEK cell media [Dulbecco’s modified Eagle’s medium containing 10% fetal bovine serum (MP Biomedicals, Solon, OH, USA), 2.0 mM L-glutamine, and 100 μg/mL Penicillin/Streptomycin (Invitrogen)] at 37 °C and 5% CO2. To test transient expression of CpomORs for calcium imaging or patch-clamp recording experiments, 35-mm petri dishes containing semi-confluent HEK293T cells were transiently transfected. To transfect cells with CpomOrco, we used 1.0 μg of pcDNA5/TO/CpomOrco DNA. In order to promote expression of the OR[51], we used double aliquots for pcDNA5/TO/CpomOR DNAs (2.0 μg), combined with 1.0 μg of pcDNA5/TO/CpomOrco for co-transfections (CpomOrco + ORs). […]
(§1) Fluorescence imaging was performed using Imaging Workbench 6 software (INDEC BioSystems, Santa Clara, CA, USA). Each cell was assigned a region of interest (ROI) and changes in fluorescence intensity within each ROI were measured and expressed as the fractional change in fluorescence intensity (dF) or in some cases as dF/F0 where F0 is the basal fluorescence level before agonist application. […] Continuous traces of multiple responses were compensated for slow drift of the baseline fluorescence when necessary. […]

CpomOrco + OR complexes = experiment: Calcium imaging of HEK293T cells expressing heteromeric CpomOrco + OR complexes; assay type: cell-based, Cydia pomonella; conditions: heteromeric complexes; peak amplitudes normalized to response at 1000 μM agonist; read-out: [A]1/2 half-effective concentration of agonist, calcium response
Protocol: HEK293T cells were grown in HEK cell media [Dulbecco’s modified Eagle’s medium containing 10% fetal bovine serum (MP Biomedicals, Solon, OH, USA), 2.0 mM L-glutamine, and 100 μg/mL Penicillin/Streptomycin (Invitrogen)] at 37 °C and 5% CO2. To test transient expression of CpomORs for calcium imaging or patch-clamp recording experiments, 35-mm petri dishes containing semi-confluent HEK293T cells were transiently transfected. To transfect cells with CpomOrco, we used 1.0 μg of pcDNA5/TO/CpomOrco DNA. In order to promote expression of the OR[51], we used double aliquots for pcDNA5/TO/CpomOR DNAs (2.0 μg), combined with 1.0 μg of pcDNA5/TO/CpomOrco for co-transfections (CpomOrco + ORs). To report expression for calcium imaging experiments, 1.0 μg of a separate plasmid DNA [pEBFP2-Nuc, a gift from Robert Campbell (Addgene plasmid # 14893[52])] carrying the coding sequence for a blue fluorescent protein (BFP) was used. In patch-clamp recordings, 1.0 μg of a separate plasmid DNA (pXOOM, Clontech) carrying the coding sequence for a green fluorescent protein (GFP) was used to report expression. In order to report candidate OR-expressing cells, expression of both fluorescent reporter genes was under the regulation of the same promoter for CpomOR genes (CMV). Transfection DNAs were dissolved in 100 μL sterile DMEM, mixed with 3.0 μL Calfectin (SignaGen, Rockville, MD, USA) following the recommended protocol. To estimate transfection efficiency, a parallel transfection was conducted using the positive control vector pcDNA5/TO/LACZ (Invitrogen) and staining with 0.1% XGal[53]. […]
as §1

CpomOrco, sequence (H9A5M2 entry or part of it): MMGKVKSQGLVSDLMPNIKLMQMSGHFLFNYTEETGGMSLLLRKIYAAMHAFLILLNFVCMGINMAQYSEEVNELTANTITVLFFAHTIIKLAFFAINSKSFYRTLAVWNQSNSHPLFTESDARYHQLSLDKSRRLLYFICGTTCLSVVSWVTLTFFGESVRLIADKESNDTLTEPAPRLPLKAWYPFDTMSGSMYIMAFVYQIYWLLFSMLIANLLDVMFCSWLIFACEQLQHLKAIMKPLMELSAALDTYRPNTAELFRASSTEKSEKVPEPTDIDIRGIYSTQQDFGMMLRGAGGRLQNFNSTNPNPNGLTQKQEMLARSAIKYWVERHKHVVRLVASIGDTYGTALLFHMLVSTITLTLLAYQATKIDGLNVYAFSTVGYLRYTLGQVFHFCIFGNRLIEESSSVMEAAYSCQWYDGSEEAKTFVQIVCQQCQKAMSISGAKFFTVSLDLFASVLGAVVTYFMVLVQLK

EC50 (CpomOrco): ~362 µM
Compound: CCn1c(SCC(=O)Nc2ccc(C(C)C)cc2)nnc1-c1ccncc1 [VUAA3, acetamide,2-[[4-ethyl-5-(4-pyridinyl)-4H-1,2,4-triazol-3-yl]thio]-N-[4-(1-methylethyl)phenyl]-]
EC50 (CpomOrco + OR complexes): ~140 µM
